For data set [1], the system named is Hepatocyte. Description: Cytotoxicity against human primary hepatocytes assessed as depletion of ATP content up to 500 uM incubated for 48 to 72 hrs by CellTiter-Glo luminescent assay. The data set is classed as toxicity, cell-based. As to conditions: time 48-72 hrs.
The test system of data set [2] is Hepatocyte. The data set can be described thus: Cytotoxicity against Wistar Han rat hepatocytes assessed as depletion of ATP content up to 500 uM incubated for 48 to 72 hrs by CellTiter-Glo luminescent assay. The data set is classed as toxicity, cell-based. As to conditions: time 48-72 hrs.
The subject of data set [3] is HepG2. The data set can be described thus: Cytotoxicity against human HepG2 cells assessed as depletion of ATP content up to 500 uM incubated for 48 to 72 hrs by CellTiter-Glo luminescent assay. The data set is classed as toxicity, cell-based. As to conditions: hepg2, 500 µM, time 48-72 hrs.
The target of data set [4] is T1, Proteasome subunit beta type-6 (Homo sapiens, UniProt P28072).
T1 sequence (P28072 whole entry): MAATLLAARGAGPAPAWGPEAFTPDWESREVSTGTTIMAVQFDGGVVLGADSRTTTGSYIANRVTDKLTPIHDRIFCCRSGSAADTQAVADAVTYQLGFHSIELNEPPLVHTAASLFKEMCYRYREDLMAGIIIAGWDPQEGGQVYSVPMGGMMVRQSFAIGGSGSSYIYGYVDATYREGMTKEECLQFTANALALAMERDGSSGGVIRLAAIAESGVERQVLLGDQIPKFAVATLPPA
The data set can be described thus: Inhibition of human 20S […] beta1 subunit using Ac-nLPnLD-AMC as substrate preincubated for 2 hrs followed by substrate addition and measured after 1 hr by fluorescence intensity assay.

For data set [5], the species on record is Homo sapiens. The data set can be described thus: Selectivity ratio of IC50 for inhibition of human 20S proteasome beta5 subunit to IC50 for inhibition of human 20S immunoproteasome beta-5i subunit.
Data set [6] deals with T2, Proteasome subunit beta type-10 (Homo sapiens, UniProt P40306).
T2 sequence (P40306 whole entry): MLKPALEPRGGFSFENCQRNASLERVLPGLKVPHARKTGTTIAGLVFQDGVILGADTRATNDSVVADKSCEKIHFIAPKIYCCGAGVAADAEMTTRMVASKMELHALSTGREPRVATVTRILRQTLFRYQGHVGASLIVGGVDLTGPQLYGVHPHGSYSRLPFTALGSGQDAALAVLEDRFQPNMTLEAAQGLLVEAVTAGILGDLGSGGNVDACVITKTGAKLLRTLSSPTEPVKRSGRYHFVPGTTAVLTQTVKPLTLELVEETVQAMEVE
Description: Inhibition of human 20S immunoproteasome beta-2i subunit using Ac-RLR-AMC as substrate preincubated for 2 hrs followed by substrate addition and measured after 1 hr by fluorescence intensity assay.

Data set [7] concerns the target T3, Proteasome subunit beta type-8 (Homo sapiens, UniProt P28062).
T3 sequence (P28062 whole entry): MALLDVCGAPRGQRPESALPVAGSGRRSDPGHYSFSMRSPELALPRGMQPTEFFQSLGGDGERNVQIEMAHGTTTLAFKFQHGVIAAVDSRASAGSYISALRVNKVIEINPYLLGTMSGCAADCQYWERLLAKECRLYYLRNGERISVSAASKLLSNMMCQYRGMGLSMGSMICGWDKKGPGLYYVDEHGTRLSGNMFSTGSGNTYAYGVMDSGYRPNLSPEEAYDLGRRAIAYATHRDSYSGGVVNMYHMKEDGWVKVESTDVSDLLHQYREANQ
Description: Inhibition of human 20S immunoproteasome beta-5i subunit using Suc-LLVY-AMC as substrate preincubated for 2 hrs followed by substrate addition and measured after 1 hr by fluorescence intensity assay.

The target of data set [8] is T4, Proteasome Macropain subunit MB1 (Homo sapiens, UniProt P28074).
T4 sequence (P28074 whole entry): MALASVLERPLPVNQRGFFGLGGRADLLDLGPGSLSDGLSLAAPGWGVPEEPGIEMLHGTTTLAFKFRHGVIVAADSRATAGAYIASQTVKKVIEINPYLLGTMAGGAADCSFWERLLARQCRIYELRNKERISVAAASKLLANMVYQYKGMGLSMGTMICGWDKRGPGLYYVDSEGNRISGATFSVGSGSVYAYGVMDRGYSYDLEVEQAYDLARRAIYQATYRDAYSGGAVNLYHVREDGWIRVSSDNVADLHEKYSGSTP
Description: Inhibition of human 20S proteasome beta5 subunit using Suc-LLVY-AMC as substrate preincubated for 2 hrs followed by substrate addition and measured after 1 hr by fluorescence intensity assay.

The target of data set [9] is T5, Proteasome subunit beta type-7 (Homo sapiens, UniProt Q99436).
T5 sequence (Q99436 whole entry): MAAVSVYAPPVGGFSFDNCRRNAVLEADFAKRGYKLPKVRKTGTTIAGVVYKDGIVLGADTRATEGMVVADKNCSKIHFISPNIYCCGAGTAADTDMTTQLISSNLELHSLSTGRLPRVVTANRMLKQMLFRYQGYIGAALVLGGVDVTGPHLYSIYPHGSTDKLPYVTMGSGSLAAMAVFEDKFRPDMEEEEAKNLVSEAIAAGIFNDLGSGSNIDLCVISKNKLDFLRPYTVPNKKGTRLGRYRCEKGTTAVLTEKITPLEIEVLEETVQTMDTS
The data set can be described thus: Inhibition of human 20S proteasome beta2 subunit using Ac-RLR-AMC as substrate preincubated for 2 hrs followed by substrate addition and measured after 1 hr by fluorescence intensity assay.

In data set [10] the target is T6, Proteasome subunit beta type-9 (Homo sapiens, UniProt P28065).
T6 sequence (P28065 whole entry): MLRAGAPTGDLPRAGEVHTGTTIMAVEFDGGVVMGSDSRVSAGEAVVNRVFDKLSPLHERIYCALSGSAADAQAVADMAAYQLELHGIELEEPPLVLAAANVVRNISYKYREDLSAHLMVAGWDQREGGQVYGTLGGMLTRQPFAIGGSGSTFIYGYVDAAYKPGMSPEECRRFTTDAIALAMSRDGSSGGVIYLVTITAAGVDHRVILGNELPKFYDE
Description: Inhibition of human 20S immunoproteasome beta-1i subunit using (Ac-PAL)2R110 as substrate preincubated for 2 hrs followed by substrate addition and measured after 1 hr by fluorescence intensity assay.

Data set [11] can be described thus: Distribution coefficient, log D of the compound. The data set is classed as physicochemical. As to conditions: octanol/water.
The nature of data set [12]: Volume of distribution at steady state in iv dosed mouse. The data set is classed as ADME, organism-based. To be noted: in vivo.
The nature of data set [13]: Kinetic solubility of the compound. The data set is classed as physicochemical. As to conditions: read-out: Kinetic_solubility.
Data set [14] in a line: Clearance in iv dosed mouse. The data set is classed as ADME, organism-based. To be noted: in vivo.
Data set [15] in a line: Half life in iv dosed mouse. The data set is classed as ADME, organism-based. To be noted: in vivo.
Data set [16] can be described thus: Lipophilicity, log P of the compound. The data set is classed as physicochemical. To be noted: octanol/water.
The species named for data set [17] is Homo sapiens. The data set can be described thus: Selectivity ratio of IC50 for inhibition of 20S proteasome beta5 subunit in human A549 cells to IC50 for inhibition of 20S immunoproteasome beta-5i subunit in human PBMC. The data set is classed as cell-based.
A short description of data set [18]: Oral bioavailability in mouse at 0.5 mg/kg. The data set is classed as ADME, organism-based. As to conditions: in vivo.
The target in data set [19] is T4, Proteasome Macropain subunit MB1. The data set can be described thus: Inhibition of 20S proteasome beta5 subunit in human A549 cells using Suc-LLVY-luciferin substrate preincubated for 2 hrs followed by substrate addition and measured after 30 mins by luminometric analysis. The data set is classed as cell-based.
The target in data set [20] is T3, Proteasome subunit beta type-8. Description: Inhibition of 20S immunoproteasome beta-5i subunit in human PBMC using Ac-ANW-luciferin substrate preincubated for 2 hrs followed by substrate addition and measured after 30 mins by luminometric analysis. The data set is classed as cell-based.
Data set [21] in a line: Intrinsic clearance in mouse liver microsomes measured per mg protein. The data set is classed as ADME, Microsome. As to conditions: read-out: CLH.
A short description of data set [22]: Clearance in mouse hepatocytes measured per million of cells. The data set is classed as ADME, cell-based, Hepatocyte. To be noted: read-out: CLH.
A short description of data set [23]: Intrinsic clearance in human liver microsomes measured per mg protein. The data set is classed as ADME, Microsome.
Data set [24] is described as follows: Clearance in human hepatocytes measured per million of cells. The data set is classed as ADME, cell-based, Hepatocyte. To be noted: read-out: CLH.

The structures appear in SMILES notation.

On to `CC(C)C[C@H](NC(=O)[C@H](Cc1ccccc1)NC(=O)c1cnccn1)B(O)O` [BORTEZOMIB], for which the Activity entry in data set [1], in [2] and in data set [3] was “Toxic” throughout.
As for `CCc1cccc(C[C@H](NC(=O)[C@H](Cc2ccccc2)NC(=O)c2cnccn2)B(O)O)c1`, the IC50 in data set [4] was 8.5 µM; in data set [6], 4 µM; in [7] it was 0.0017 µM; in data set [8], 0.041 µM; in data set [9] it was > 30 µM; in data set [10] it was 0.011 µM. In addition, the Ratio IC50 in data set [5] stood at 24.
Molecule `O=C(Cc1ccccc1)N[C@@H](Cc1coc2ccccc12)B(O)O` returned a logD in data set [11] of 1. In [12] (iv), this molecule had a Vdss of 2.25 L/kg. Further, the Ratio IC50 in data set [5] is 419; in data set [17], 41. In addition, the solubility kinetic in [13] was > 200 µM. Moreover, the CL in [14] (iv) is 0.18 L/h/kg. Further, the IC50 was found to be 0.0021 µM in data set [7], 0.9 µM in [8], 0.573 µM in data set [19] and 0.014 µM in data set [20]. Further, in [15] (iv), the t1/2 was 22.2 min. For the same molecule, the logP in data set [16] came out at 3.5. In data set [18], this molecule gave a bioavailability of 37%.
Consider `CC(C)C[C@H](NC(=O)CNC(=O)c1cc(Cl)ccc1Cl)B(O)O`, for which the half-inhibitory concentration (IC50) in data set [4] is 0.064 µM; in [6] it was 4.87 µM; in data set [7], 0.0029 µM; in data set [9], > 30 µM; in data set [10], 0.0027 µM.
`O=C(N[C@@H](Cc1coc2ccccc12)B(O)O)[C@H]1CCCO1`: in data set [21], the microsomal CLint turned out to be 48 µL/min/mg. The Ratio IC50 in data set [5] amounted to 158; in data set [17], 20. In addition, the IC50 was 0.0059 µM in data set [7], 0.93 µM in [8], 0.817 µM in data set [19] and 0.04 µM in [20]. The same molecule returned a logP in data set [16] of 2.1. The hepatocyte CLint in [22] was found to be 90.7 µL/min/1e6 cells.
Take `O=C(N[C@@H](Cc1coc2ccccc12)B(O)O)[C@@H]1CCCO1`: the microsomal CLint in [21] was determined as 34 µL/min/mg. The Ratio IC50 turned out to be 128 in data set [5] and 38 in data set [17]. Besides, the IC50 was found to be 0.19 µM in [7], 24 µM in [8], 15 µM in data set [19] and 0.4 µM in [20]. In addition, in data set [16], the logP is 1.9. Further, the hepatocyte CLint in data set [22] came out at 99.7 µL/min/1e6 cells.
For `O=C(N[C@@H](Cc1coc2ccccc12)B(O)O)[C@H]1C[C@@H]2CC[C@H]1O2`, the microsomal CLint in data set [21] amounted to 16 µL/min/mg. The Ratio IC50 in data set [5] was determined as 444; in data set [17], 124. For the same molecule, the IC50 in data set [7] is 0.015 µM; in [8] it was 6.5 µM; in [19], 2.44 µM; in data set [20] it was 0.0196 µM. The CLH in data set [23] was < 10 µL/min/mg. The molecule also had a logP in data set [16] of 2.25. Moreover, the hepatocyte CLint in [22] amounted to 15.9 µL/min/1e6 cells; in data set [24] it was 6.6 µL/min/1e6 cells.
Turning to `O=C(N[C@@H](Cc1coc2ccccc12)B(O)O)[C@@H]1CCOC1`, in data set [21], the microsomal CLint turned out to be 19 µL/min/mg. Further, the Ratio IC50 in [5] is 410; in [17], 123. Moreover, the IC50 in [7] was determined as 0.01 µM; in data set [8], 4.3 µM; in [19], 1.69 µM; in data set [20], 0.0137 µM. This molecule also displayed a logP in data set [16] of 1.85. Further, the hepatocyte CLint in data set [22] worked out at 26.7 µL/min/1e6 cells.
In the case of `O=C(N[C@@H](Cc1coc2ccccc12)B(O)O)[C@H]1CCOC1`, the microsomal CLint in [21] amounted to 16 µL/min/mg. For the same molecule, the Ratio IC50 in data set [5] amounted to 175; in data set [17], 54. In addition, the IC50 in data set [7] was determined as 0.028 µM; in data set [8] it was 5 µM; in data set [19], 3 µM; in [20] it was 0.055 µM. In [16], this molecule yielded a logP of 2.1.
In [11], `N#Cc1ccccc1CC(=O)N[C@@H](C[C@@H]1COc2ccccc21)B(O)O` returned a pH-dependent lipophilicity (logD) of 1.3. The microsomal CLint in data set [21] came out at 37 µL/min/mg. For the same molecule, the Vd in [12] (read-out: Vdss) worked out at 1.88 L/kg. For the same molecule, the Ratio IC50 in data set [5] worked out at 758; in data set [17], 126. For the same molecule, the solubility kinetic in data set [13] was > 200 µM. The clearance in data set [14] is 1.97 L/h/kg. The IC50 in [7] was 0.0031 µM; in [8], 2.4 µM; in data set [19], 2.52 µM; in data set [20], 0.02 µM. For the same molecule, in data set [23], the CLH was < 10 µL/min/mg. In data set [15], this molecule gave a half-life of 42.6 min. The same molecule had a logP in data set [16] of 1.75. The bioavailability in data set [18] came to 13%.

Values taken from ChEMBL document CHEMBL5149996, “Structure-Based Optimization and Discovery of M3258, a Specific Inhibitor of the Immunoproteasome Subunit LMP7 (β5i)” (J Med Chem, 2021).
